Experimental data reported in US20230070861A1, “COMPOSITIONS AND METHODS FOR TREATING HEPATITIS B” (priority 2019, published 2023).

Test system: HBV
Test: HBV markers in HBV-infected primary human hepatocyte (PHH) co-culture
Format: cell-based
Experimental: A system comprising HBV-infected primary human hepatocytes (PHHs) was established by persistent HBV infection for over 30 days in a self-assembling, primary hepatocyte co-culture system (FIG. 12A). To generate the co-cultures system, primary human hepatocytes (PHH) (BioIVT) were plated at 350 k cells per well in a Collagen-Type I coated 24-well plate (Corning, 354408), and incubated at 37° C., 5% C02 to generate an adherent cell monolayer. 4 hrs post plating, plated hepatocytes were washed with CP medium (BioIVT) to remove any unadhered cells. 3T3-J2 murine embryonic fibroblasts (Kerafast (distributed from Howard Green (Harvard), Boston) were seeded at a ratio of 95% hepatocyte:5% fibroblast per well and cultured at 37° C., 5% C02 for an additional 12 hours to form co-cultures. Culture medium was replaced every 2 days (500 μL per well) for continued maintenance. Shown in FIG. 12C are images of transduced primary hepatocytes from two human hepatocyte donors, isolated from two different human livers. They were isolated, cryopreserved, and distributed for sale for research purposes by BioIVT (Maryland, US).
On the second day, post hepatocyte co-culture formation, lentivirus was added at an MOI 500 dropwise into culture medium per well. Co-cultures were transduced for 16 hours, prior to changing media for fresh CP medium (BioIVT). Culture medium was replaced every 2 days (500 μL per well) for continued maintenance. Protein expression occurs over 7 days period in hepatic co-cultures. At day 7 post transduction, co-cultures were transfected using lipofection based reagents co-formulated with gRNA and base-editor mRNA. Cells were lysed and harvested for gDNA 48 hours post transfection. FIG. 12B provides a timeline of the in vitro transduction schedule in either hepatocyte monolayers or hepatocyte co-cultures showing representative time points. Importantly, PHH cultures not treated with polyethylene glycol (PEG) during infection tend to have very low percentages of HBV infected PHH cells.
The infected cells, as gauged by HBV markers, respond to treatment as expected. […] The amounts of extracellular HBV DNA detected in the treated PHH cultures were similar to the amount observed in negative control cell cultures.
The experiments employed the approach using the HBV-infected PHH culture system and transfection of the PHH with components (base editors) of the base editor system as depicted in FIG. 19. Primary hepatocytes (PHH) co-cultures were infected with HBV in order to test antiviral efficacy of the base editors. The base editing reagents or components (base editor mRNA and synthetic gRNA) were transfected via lipofection twice over the course of two weeks. The first transfection was performed 3 days after infection to allow for complete formation of viral covalently closed circular DNA (cccDNA) at the time of the transfection. Extracellular parameters (HBsAg, HBeAg, and HBV DNA) were monitored over the course of the experiment and intracellular parameters (HBV DNA, viral RNA, and editing) were monitored at the end of the experiment. Briefly, on Day 0, PHH were infected with HBV (MOI=500). On Day 3 after HBV infection, the cells were transfected with base editing components, e.g., a BE and gRNA, or control(s). On Day 10, PHHs were subjected to another round of transfection. At the termination of the experiment, e.g., Day 17 or longer, e.g., Day 25, the PHH were lysed and extracellular amounts of HBsAg, HBeAg and HBV DNA were assessed. Also assessed were intracellular amounts of HBV DNA, viral RNA and the efficacy of base editing by the components of the base editor system versus control(s). Transfection details: RNA format, 800 ng total RNA per well in a 24 well plate (600 ng base editor+200 ng gRNA) transfected via lipofection (lipofectamin messengerMax, Thermofisher Scientific) according to the vendor's protocol. […]

[1] = 14-day PHH co-culture experiment, FIG. 20

C=C1[C@H](CO)[C@@H](O)C[C@@H]1n1cnc2c(=O)[nH]c(N)nc21 [entecavir]
HBV DNA [1]: reduces
HBsAg [1]: does not influence
pgRNA [1]: does not influence

C[C@H](Cn1cnc2c(N)ncnc21)OCP(=O)(O)O [tenofovir]
extracellular HBV DNA (compared to untreated HBV infected control cells, by day 7 post infection, FIG. 13B): significantly reduced
HBV surface antigen (HBsAg) (relative to negative controls, FIG. 13C): lower levels
intracellular HBV DNA (relative to negative controls, FIG. 13D): lower levels
total HBV RNA (relative to negative controls, FIG. 13E): lower levels
pre-genomic RNA (pgRNA) (relative to negative controls, FIG. 13F): lower levels
